Literature values in US10393636B2 (priority 2017, dated 2019).

Log P: 5.06
SMILES: CN[C@H]1CC[C@@H](c2ccc(Cl)c(Cl)c2)c2ccccc21 [Sertraline]
